Experimental data published in publication PMC12848717, “Discovery of Encrypted Peptides in a Human Matrix Metallopeptidase” (JACS Au, 2025).
Read-outs that look alike come from different tables or passages of the source. Ends that are not written are not given here.

Legend:
A. baumannii ATCC 19606 = settings: for MIC after treatment 1: serial exposure at MIC/2, treatment 1 of 21; for MIC after treatment 2: serial exposure at MIC/2, treatment 2 of 21; for MIC after treatment 3: serial exposure at MIC/2, treatment 3 of 21; for MIC after treatment 4: serial exposure at MIC/2, treatment 4 of 21; for MIC after treatment 5: serial exposure at MIC/2, treatment 5 of 21; for MIC after treatment 6: serial exposure at MIC/2, treatment 6 of 21; for MIC after treatment 7: serial exposure at MIC/2, treatment 7 of 21; for MIC after treatment 8: serial exposure at MIC/2, treatment 8 of 21; for MIC after treatment 9: serial exposure at MIC/2, treatment 9 of 21; for MIC after treatment 10: serial exposure at MIC/2, treatment 10 of 21; for MIC after treatment 11: serial exposure at MIC/2, treatment 11 of 21; for MIC after treatment 13: serial exposure at MIC/2, treatment 13 of 21; for MIC after treatment 14: serial exposure at MIC/2, treatment 14 of 21; for MIC after treatment 15: serial exposure at MIC/2, treatment 15 of 21; for MIC after treatment 16: serial exposure at MIC/2, treatment 16 of 21; for MIC after treatment 17: serial exposure at MIC/2, treatment 17 of 21; for MIC after treatment 18: serial exposure at MIC/2, treatment 18 of 21; for MIC after treatment 19: serial exposure at MIC/2, treatment 19 of 21; for MIC after treatment 20: serial exposure at MIC/2, treatment 20 of 21; for MIC after treatment 21: serial exposure at MIC/2, treatment 21 of 21
[1] = test system: S. epidermidis ATCC 35984; settings: for MIC after treatment 1: serial exposure at MIC/2, treatment 1 of 21; for MIC after treatment 2: serial exposure at MIC/2, treatment 2 of 21; for MIC after treatment 3: serial exposure at MIC/2, treatment 3 of 21; for MIC after treatment 4: serial exposure at MIC/2, treatment 4 of 21; for MIC after treatment 5: serial exposure at MIC/2, treatment 5 of 21; for MIC after treatment 6: serial exposure at MIC/2, treatment 6 of 21; for MIC after treatment 7: serial exposure at MIC/2, treatment 7 of 21; for MIC after treatment 8: serial exposure at MIC/2, treatment 8 of 21; for MIC after treatment 9: serial exposure at MIC/2, treatment 9 of 21; for MIC after treatment 10: serial exposure at MIC/2, treatment 10 of 21; for MIC after treatment 11: serial exposure at MIC/2, treatment 11 of 21; for MIC after treatment 13: serial exposure at MIC/2, treatment 13 of 21; for MIC after treatment 14: serial exposure at MIC/2, treatment 14 of 21; for MIC after treatment 15: serial exposure at MIC/2, treatment 15 of 21; for MIC after treatment 16: serial exposure at MIC/2, treatment 16 of 21; for MIC after treatment 17: serial exposure at MIC/2, treatment 17 of 21; for MIC after treatment 18: serial exposure at MIC/2, treatment 18 of 21; for MIC after treatment 19: serial exposure at MIC/2, treatment 19 of 21; for MIC after treatment 20: serial exposure at MIC/2, treatment 20 of 21; for MIC after treatment 21: serial exposure at MIC/2, treatment 21 of 21
[2] = test system: Human coronavirus 229E (HCoV-229E); settings: plaque reduction
[3] = Table S3, serial exposure at MIC/2, treatment 12 of 21
[4] = Table S4, serial exposure at MIC/2, treatment 12 of 21
[5] = read-out: IC50, co-treatment, Vero-76 cells exposed to virus and peptide simultaneously, 1 h, 37 °C
[6] = read-out: IC50, virus pretreatment, virus incubated with peptide 1 h, 37 °C before infection

Colistin [reference compound]
8 µM: MIC after treatment 1 ([1]; Table S4) | MIC after treatment 2 ([1]; Table S4) | MIC after treatment 3 ([1]; Table S4) | MIC after treatment 4 ([1]; Table S4) | MIC after treatment 5 ([1]; Table S4) | MIC after treatment 6 ([1]; Table S4) | MIC after treatment 7 ([1]; Table S4) | MIC after treatment 8 ([1]; Table S4) | MIC after treatment 9 ([1]; Table S4) | MIC after treatment 10 ([1]; Table S4) | MIC after treatment 11 ([1]; Table S4) | MIC after treatment 12 [1, 4] | MIC after treatment 13 ([1]; Table S4) | MIC after treatment 14 ([1]; Table S4) | MIC after treatment 15 ([1]; Table S4) | MIC after treatment 16 ([1]; Table S4) | MIC after treatment 17 ([1]; Table S4) | MIC after treatment 18 ([1]; Table S4) | MIC after treatment 19 ([1]; Table S4) | MIC after treatment 20 ([1]; Table S4) | MIC after treatment 21 ([1]; Table S4)
4 µM: MIC after treatment 1 (A. baumannii ATCC 19606; Table S3) | MIC after treatment 2 (A. baumannii ATCC 19606; Table S3) | MIC after treatment 3 (A. baumannii ATCC 19606; Table S3) | MIC after treatment 4 (A. baumannii ATCC 19606; Table S3) | MIC after treatment 5 (A. baumannii ATCC 19606; Table S3) | MIC after treatment 6 (A. baumannii ATCC 19606; Table S3) | MIC after treatment 7 (A. baumannii ATCC 19606; Table S3) | MIC after treatment 8 (A. baumannii ATCC 19606; Table S3) | MIC after treatment 9 (A. baumannii ATCC 19606; Table S3) | MIC after treatment 10 (A. baumannii ATCC 19606; Table S3) | MIC after treatment 11 (A. baumannii ATCC 19606; Table S3) | MIC after treatment 12 (A. baumannii ATCC 19606; [3]) | MIC after treatment 13 (A. baumannii ATCC 19606; Table S3) | MIC after treatment 14 (A. baumannii ATCC 19606; Table S3) | MIC after treatment 15 (A. baumannii ATCC 19606; Table S3) | MIC after treatment 16 (A. baumannii ATCC 19606; Table S3) | MIC after treatment 17 (A. baumannii ATCC 19606; Table S3) | MIC after treatment 18 (A. baumannii ATCC 19606; Table S3) | MIC after treatment 19 (A. baumannii ATCC 19606; Table S3) | MIC after treatment 20 (A. baumannii ATCC 19606; Table S3) | MIC after treatment 21 (A. baumannii ATCC 19606; Table S3)

Polymyxin B [reference compound]
4 µM: MIC after treatment 1 ([1]; Table S4) | MIC after treatment 2 ([1]; Table S4) | MIC after treatment 3 ([1]; Table S4) | MIC after treatment 4 ([1]; Table S4) | MIC after treatment 5 ([1]; Table S4) | MIC after treatment 6 ([1]; Table S4) | MIC after treatment 7 ([1]; Table S4) | MIC after treatment 8 ([1]; Table S4) | MIC after treatment 9 ([1]; Table S4) | MIC after treatment 10 ([1]; Table S4) | MIC after treatment 11 ([1]; Table S4) | MIC after treatment 12 [1, 4] | MIC after treatment 13 ([1]; Table S4) | MIC after treatment 14 ([1]; Table S4) | MIC after treatment 15 ([1]; Table S4) | MIC after treatment 16 ([1]; Table S4) | MIC after treatment 17 ([1]; Table S4) | MIC after treatment 18 ([1]; Table S4) | MIC after treatment 19 ([1]; Table S4) | MIC after treatment 20 ([1]; Table S4) | MIC after treatment 21 ([1]; Table S4)
2 µM: MIC after treatment 1 (A. baumannii ATCC 19606; Table S3) | MIC after treatment 2 (A. baumannii ATCC 19606; Table S3) | MIC after treatment 3 (A. baumannii ATCC 19606; Table S3) | MIC after treatment 4 (A. baumannii ATCC 19606; Table S3) | MIC after treatment 5 (A. baumannii ATCC 19606; Table S3) | MIC after treatment 6 (A. baumannii ATCC 19606; Table S3) | MIC after treatment 7 (A. baumannii ATCC 19606; Table S3) | MIC after treatment 8 (A. baumannii ATCC 19606; Table S3) | MIC after treatment 9 (A. baumannii ATCC 19606; Table S3) | MIC after treatment 10 (A. baumannii ATCC 19606; Table S3) | MIC after treatment 11 (A. baumannii ATCC 19606; Table S3) | MIC after treatment 12 (A. baumannii ATCC 19606; [3]) | MIC after treatment 13 (A. baumannii ATCC 19606; Table S3) | MIC after treatment 14 (A. baumannii ATCC 19606; Table S3) | MIC after treatment 15 (A. baumannii ATCC 19606; Table S3) | MIC after treatment 16 (A. baumannii ATCC 19606; Table S3) | MIC after treatment 17 (A. baumannii ATCC 19606; Table S3) | MIC after treatment 18 (A. baumannii ATCC 19606; Table S3) | MIC after treatment 19 (A. baumannii ATCC 19606; Table S3) | MIC after treatment 20 (A. baumannii ATCC 19606; Table S3) | MIC after treatment 21 (A. baumannii ATCC 19606; Table S3)

PYLLLGRWRKKHLTFRILNL [r(P)YLL19]
0.56 µM: IC50 [2, 6]
12.5 µM: IC50 [2, 5]
5 µM: MIC after treatment 12 (A. baumannii ATCC 19606; ATCC 19606) | MIC after treatment 1 (A. baumannii ATCC 19606; Table S3) | MIC after treatment 2 (A. baumannii ATCC 19606; Table S3) | MIC after treatment 3 (A. baumannii ATCC 19606; Table S3) | MIC after treatment 4 (A. baumannii ATCC 19606; Table S3) | MIC after treatment 5 (A. baumannii ATCC 19606; Table S3) | MIC after treatment 6 (A. baumannii ATCC 19606; Table S3) | MIC after treatment 7 (A. baumannii ATCC 19606; Table S3) | MIC after treatment 8 (A. baumannii ATCC 19606; Table S3) | MIC after treatment 9 (A. baumannii ATCC 19606; Table S3) | MIC after treatment 10 (A. baumannii ATCC 19606; Table S3) | MIC after treatment 11 (A. baumannii ATCC 19606; Table S3) | MIC after treatment 13 (A. baumannii ATCC 19606; Table S3) | MIC after treatment 14 (A. baumannii ATCC 19606; Table S3) | MIC after treatment 15 (A. baumannii ATCC 19606; Table S3) | MIC after treatment 16 (A. baumannii ATCC 19606; Table S3) | MIC after treatment 17 (A. baumannii ATCC 19606; Table S3) | MIC after treatment 18 (A. baumannii ATCC 19606; Table S3) | MIC after treatment 19 (A. baumannii ATCC 19606; Table S3) | MIC after treatment 20 (A. baumannii ATCC 19606; Table S3) | MIC after treatment 21 (A. baumannii ATCC 19606; Table S3) | MIC after treatment 12 ([1]; ATCC 35984) | MIC after treatment 1 ([1]; Table S4) | MIC after treatment 2 ([1]; Table S4) | MIC after treatment 3 ([1]; Table S4) | MIC after treatment 4 ([1]; Table S4) | MIC after treatment 5 ([1]; Table S4) | MIC after treatment 6 ([1]; Table S4) | MIC after treatment 7 ([1]; Table S4) | MIC after treatment 8 ([1]; Table S4) | MIC after treatment 9 ([1]; Table S4) | MIC after treatment 10 ([1]; Table S4) | MIC after treatment 11 ([1]; Table S4) | MIC after treatment 13 ([1]; Table S4) | MIC after treatment 14 ([1]; Table S4) | MIC after treatment 15 ([1]; Table S4) | MIC after treatment 16 ([1]; Table S4) | MIC after treatment 17 ([1]; Table S4) | MIC after treatment 18 ([1]; Table S4) | MIC after treatment 19 ([1]; Table S4) | MIC after treatment 20 ([1]; Table S4) | MIC after treatment 21 ([1]; Table S4)

PYLLLGRWRKKHLTFRILNLPSTLPPHTARAALR [r(P)YLL33]
5 µM: MIC after treatment 12 (A. baumannii ATCC 19606; ATCC 19606) | MIC after treatment 1 (A. baumannii ATCC 19606; Table S3) | MIC after treatment 2 (A. baumannii ATCC 19606; Table S3) | MIC after treatment 3 (A. baumannii ATCC 19606; Table S3) | MIC after treatment 4 (A. baumannii ATCC 19606; Table S3) | MIC after treatment 5 (A. baumannii ATCC 19606; Table S3) | MIC after treatment 6 (A. baumannii ATCC 19606; Table S3) | MIC after treatment 7 (A. baumannii ATCC 19606; Table S3) | MIC after treatment 8 (A. baumannii ATCC 19606; Table S3) | MIC after treatment 9 (A. baumannii ATCC 19606; Table S3) | MIC after treatment 10 (A. baumannii ATCC 19606; Table S3) | MIC after treatment 11 (A. baumannii ATCC 19606; Table S3) | MIC after treatment 13 (A. baumannii ATCC 19606; Table S3) | MIC after treatment 14 (A. baumannii ATCC 19606; Table S3) | MIC after treatment 15 (A. baumannii ATCC 19606; Table S3) | MIC after treatment 16 (A. baumannii ATCC 19606; Table S3) | MIC after treatment 17 (A. baumannii ATCC 19606; Table S3) | MIC after treatment 18 (A. baumannii ATCC 19606; Table S3) | MIC after treatment 19 (A. baumannii ATCC 19606; Table S3) | MIC after treatment 20 (A. baumannii ATCC 19606; Table S3) | MIC after treatment 21 (A. baumannii ATCC 19606; Table S3) | MIC after treatment 12 ([1]; ATCC 35984) | MIC after treatment 1 ([1]; Table S4) | MIC after treatment 2 ([1]; Table S4) | MIC after treatment 3 ([1]; Table S4) | MIC after treatment 4 ([1]; Table S4) | MIC after treatment 5 ([1]; Table S4) | MIC after treatment 6 ([1]; Table S4) | MIC after treatment 7 ([1]; Table S4) | MIC after treatment 8 ([1]; Table S4) | MIC after treatment 9 ([1]; Table S4) | MIC after treatment 10 ([1]; Table S4) | MIC after treatment 11 ([1]; Table S4) | MIC after treatment 13 ([1]; Table S4) | MIC after treatment 14 ([1]; Table S4) | MIC after treatment 15 ([1]; Table S4) | MIC after treatment 16 ([1]; Table S4) | MIC after treatment 17 ([1]; Table S4) | MIC after treatment 18 ([1]; Table S4) | MIC after treatment 19 ([1]; Table S4) | MIC after treatment 20 ([1]; Table S4) | MIC after treatment 21 ([1]; Table S4)
27.8 µM: IC50 [2, 5]
16.4 µM: IC50 [2, 6]
